For the assay, the target named is T1, SIRT1 (Homo sapiens, UniProt Q96EB6).
T1 sequence (Q96EB6 1-747): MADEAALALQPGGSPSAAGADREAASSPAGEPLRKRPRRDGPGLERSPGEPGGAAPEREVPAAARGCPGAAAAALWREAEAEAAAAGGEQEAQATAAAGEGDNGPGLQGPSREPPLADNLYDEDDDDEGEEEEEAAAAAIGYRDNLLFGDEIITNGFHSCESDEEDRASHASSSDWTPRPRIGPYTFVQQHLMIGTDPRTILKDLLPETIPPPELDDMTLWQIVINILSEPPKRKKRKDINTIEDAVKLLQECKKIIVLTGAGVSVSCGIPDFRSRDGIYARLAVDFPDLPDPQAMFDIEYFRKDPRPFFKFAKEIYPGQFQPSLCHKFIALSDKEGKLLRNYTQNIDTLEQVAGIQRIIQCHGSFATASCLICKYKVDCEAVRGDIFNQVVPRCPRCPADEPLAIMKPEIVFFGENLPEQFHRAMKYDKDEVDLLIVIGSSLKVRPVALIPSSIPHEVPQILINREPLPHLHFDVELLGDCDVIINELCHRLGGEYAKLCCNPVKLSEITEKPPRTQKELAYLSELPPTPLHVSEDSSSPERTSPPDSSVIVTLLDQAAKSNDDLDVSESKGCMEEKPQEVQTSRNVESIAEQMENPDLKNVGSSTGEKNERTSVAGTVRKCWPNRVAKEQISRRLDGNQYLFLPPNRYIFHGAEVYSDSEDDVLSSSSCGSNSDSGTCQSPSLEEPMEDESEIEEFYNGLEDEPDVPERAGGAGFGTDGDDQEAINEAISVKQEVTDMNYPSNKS
As to the kind of experiment: Trp mass spectrometry assay of SIRT1 activation. It counts as biochemical. As to conditions: Trp peptide Ac-R-H-K-K(Ac)-W-NH2 0.5 μM, 120 μM βNAD+, 10 nM SIRT1, 25 min, 25° C.

The results in this text go back to patent US20180319810A1, “SUBSTITUTED BRIDGED UREA ANALOGS AS SIRTUIN MODULATORS” (GlaxoSmithKline Intellectual Property (No.2) Limited, priority 2014, published 2018).

`O=C(Nc1cnc(OC[C@H](O)CO)nc1)N1c2nc(-c3cccc(C(F)(F)F)c3)ncc2N2CCC[C@H]1C2` [Example 104, (9S)—N-(2-((R)-2,3-dihydroxypropoxy)pyrimidin-5-yl)-2-(3-(trifluoromethyl)phenyl)-8,9-dihydro-6H-5,9-methanopyrimido[4,5-b][1,4]diazocine-10(7H)-carboxamide]: the “TRP Activity (EC1.5, concentration of compound required to increase SIRT1 activity by 50% over control)” value is recorded as “A (EC1.5<1 μM)” and the “TRP MAX RESP (percent maximum fold activation relative to control)” value is reported as “A (Fold activation ≥150%)”.

With `O=C(Nc1cc(OC[C@H](O)CO)ccn1)N1c2nc(-c3cccc(C(F)(F)F)c3)ncc2N2CCC[C@H]1C2` [Example 80, (9S)—N-(4-((R)-2,3-dihydroxypropoxy)pyridin-2-yl)-2-(3-(trifluoromethyl)phenyl)-8,9-dihydro-6H-5,9-methanopyrimido[4,5-b][1,4]diazocine-10(7H)-carboxamide], the “TRP Activity (EC1.5, concentration of compound required to increase SIRT1 activity by 50% over control)” value is reported as “A (EC1.5<1 μM)” and the “TRP MAX RESP (percent maximum fold activation relative to control)” value is reported as “A (Fold activation ≥150%)”.

In the case of `O=C(Nc1cc(OC[C@@H](O)CO)ccn1)N1c2nc(-c3cccc(C(F)(F)F)c3)ncc2N2CC[C@H]1C2` [Example 36, (8S)—N-(4-((S)-2,3-dihydroxypropoxy)pyridin-2-yl)-2-(3-(trifluoromethyl)phenyl)-7,8-dihydro-5,8-methanopyrimido[4,5-b][1,4]diazepine-9(6H)-carboxamide], the “TRP Activity (EC1.5, concentration of compound required to increase SIRT1 activity by 50% over control)” value is reported as “B (EC1.5 1-25 μM)” and the “TRP MAX RESP (percent maximum fold activation relative to control)” value is given as “A (Fold activation ≥150%)”.

For the compound `O=C(Nc1cccc(OC[C@@H](O)CO)n1)N1c2nc(-c3cccc(C(F)(F)F)c3)ncc2N2CCC[C@H]1C2` [Example 84, (9S)—N-(6-((S)-2,3-dihydroxypropoxy)pyridin-2-yl)-2-(3-(trifluoromethyl)phenyl)-8,9-dihydro-6H-5,9-methanopyrimido[4,5-b][1,4]diazocine-10(7H)-carboxamide], the “TRP Activity (EC1.5, concentration of compound required to increase SIRT1 activity by 50% over control)” value was “A (EC1.5<1 μM)” and the “TRP MAX RESP (percent maximum fold activation relative to control)” value is “A (Fold activation ≥150%)”.

Regarding `Cc1ncc(-c2ccnc(NC(=O)N3c4nc(C(=O)N[C@H](C)C(F)(F)F)ncc4N4CCC[C@H]3C4)c2)o1` [Example 70, (9S)—N10-(4-(2-methyloxazol-5-yl)pyridin-2-yl)-N2-((R)-1,1,1-trifluoropropan-2-yl)-8,9-dihydro-6H-5,9-methanopyrimido[4,5-b][1,4]diazocine-2,10(7H)-dicarboxamide], the “TRP Activity (EC1.5, concentration of compound required to increase SIRT1 activity by 50% over control)” value was “A (EC1.5<1 μM)” and the “TRP MAX RESP (percent maximum fold activation relative to control)” value was “A (Fold activation ≥150%)”.

Consider `O=C(NC1CC1)N1c2nc(-c3cccc(C(F)(F)F)c3)ncc2N2CCC[C@H]1C2` [Example 87, (9S)—N-cyclopropyl-2-(3-(trifluoromethyl)phenyl)-8,9-dihydro-6H-5,9-methanopyrimido[4,5-b][1,4]diazocine-10(7H)-carboxamide], for which the “TRP Activity (EC1.5, concentration of compound required to increase SIRT1 activity by 50% over control)” value is given as “A (EC1.5<1 μM)” and the “TRP MAX RESP (percent maximum fold activation relative to control)” value is “A (Fold activation ≥150%)”.

On to `Cc1ccc2c(NC(=O)N3c4nc(C(=O)N[C@H](C)C(F)(F)F)nc(C)c4N4CC[C@H]3C4)n[nH]c2n1` [Example 60, (8S)-4-methyl-N9-(6-methyl-1H-pyrazolo[3,4-b]pyridin-3-yl)-N2-((R)-1,1,1-trifluoropropan-2-yl)-7,8-dihydro-5,8-methanopyrimido[4,5-b][1,4]diazepine-2,9(6H)-dicarboxamide], for which the “TRP Activity (EC1.5, concentration of compound required to increase SIRT1 activity by 50% over control)” value was “B (EC1.5 1-25 μM)” and the “TRP MAX RESP (percent maximum fold activation relative to control)” value is listed as “A (Fold activation ≥150%)”.
